Experimental data as given in patent publication US20070293553A1, “Diphenylurea Derivatives Useful As Potassium Channel Activators” (priority 2004, published 2007).

System: cough reflex in conscious guinea-pigs
Test: Citric acid-induced cough in conscious guinea-pigs
Format: in vivo, guinea-pig
Details: prior exposure to aerosolized test compound (300 μM in nebulizer solution), 10 minutes citric acid aerosol, FIG. 1
Protocol: Exposure of animals for 10 minutes with citric acid aerosol elicited a reproducible cough response.
The cough model is based on guinea-pigs that have been pre-screened to assess their cough response to a 10 minutes exposure of aerosolised 0.35 M citric acid. […] The guinea-pigs are then ranked with regard to their tussive response to citric acid and divided into groups so that the mean number of coughs per group is similar in the vehicle and drug treated groups.
Cough is detected both by pressure change and by sound and recorded using a chart recorder. All animals received Terbutaline (0.05 mg/kg i.p.) 10 minutes prior to challenge with citric acid to alleviate any bronchoconstriction that may occur. These animals were allowed to recover for 1 week. Following this rest period the study was initiated and animals received aerosolised vehicle (1% DMSO) or test compound at 300 μM in 1% DMSO in saline for 20 minutes prior to exposure to citric acid. After dosing, the animals were monitored and exposed to 0.35 M citric acid for 10 minutes, and the number of coughs recorded.
Initially N-(3,5-Dichlorophenyl)-N′-[3-(1H-tetrazol-5-yl)-3′-trifluoromethyl-bi-phenyl-4-yl]-urea (Compound A (3-39)) and N-(3,5-Dichlorophenyl)-N′-[4-bromo-2-(1H-tetrazol-5-yl)phenyl]urea (Compound B) were subjected to this determination, and the results of these determinations are presented in FIG. 1.
For `O=C(Nc1cc(Cl)cc(Cl)c1)Nc1ccc(Br)cc1-c1nnn[nH]1` [Compound B, N-(3,5-Dichlorophenyl)-N′-[4-bromo-2-(1H-tetrazol-5-yl)phenyl]urea], the “cough response to citric acid” value was “greatly reduced”. With `O=C(Nc1cc(Cl)cc(Cl)c1)Nc1ccc(-c2cccc(C(F)(F)F)c2)cc1-c1nnn[nH]1` [Compound 3-39, N-(3,5-Dichloro-phenyl)-N′-[3-(1H-tetrazol-5-yl)-3′-trifluoromethyl-biphenyl-4-yl]-urea] the “cough response to citric acid” value was “greatly reduced”.

System: not given
Test: not given
Details: not given
For `O=C(Nc1cc(Cl)cc(Cl)c1)Nc1ccc(-c2cccc(C(F)(F)F)c2)cc1-c1nnn[nH]1` [Compound 3-39, N-(3,5-Dichloro-phenyl)-N′-[3-(1H-tetrazol-5-yl)-3′-trifluoromethyl-biphenyl-4-yl]-urea], the melting point was 236 to 239 °C. Work on `O=C(Nc1ccc(-c2ccc(F)cc2)cc1-c1nnn[nH]1)Nc1ccccc1C(F)(F)F` [Compound 3-19, N-(2-Trifluoromethyl-phenyl)-N′-[4′-fluoro-3-(1H-tetrazol-5-yl)-biphenyl-4-yl]-urea] yielded a melting point of 256 to 258 °C. Compound `Cc1ccc(-c2ccc(NC(=O)Nc3ccccc3Cl)c(-c3nnn[nH]3)c2)cc1` [Compound 3-28, N-(2-Chloro-phenyl)-N′-[4′-methyl-3-(1H-tetrazol-5-yl)-biphenyl-4-yl]-urea] has a melting point of 261 to 263 °C. Compound `O=C(Nc1ccccc1Cl)Nc1ccc(-c2ccc(F)cc2)cc1-c1nnn[nH]1` [Compound 3-33, N-(2-Chloro-phenyl)-N′-[4′-fluoro-3-(1H-tetrazol-5-yl)-biphenyl-4-yl]-urea] has a melting point of 255 to 257 °C. `O=C(Nc1ccc(F)c(C(F)(F)F)c1)Nc1ccc(-c2cccc(C(F)(F)F)c2)cc1-c1nnn[nH]1` [Compound 3-45, N-(4-Fluoro-3-trifluoromethyl-phenyl)-N′-[3-(1H-tetrazol-5-yl)-3′-trifluoromethyl-biphenyl-4-yl]-urea] gave a melting point of 254 to 255 °C. For `COc1ccc(-c2ccc(NC(=O)Nc3cc(C(F)(F)F)cc(C(F)(F)F)c3)c(-c3nnn[nH]3)c2)cc1` [Compound 3-42, N-(3,5-Bis-trifluoromethyl-phenyl)-N′-[4′-methoxy-3-(1H-tetrazol-5-yl)-biphenyl-4-yl]-urea], the melting point was 219 to 221 °C. `O=C(Nc1cc(C(F)(F)F)cc(C(F)(F)F)c1)Nc1ccc(-c2ccc(C(F)(F)F)cc2)cc1-c1nnn[nH]1` [Compound 3-13, N-(3,5-Bis-trifluoromethyl-phenyl)-N′-[3-(1H-tetrazol-5-yl)-4′-trifluoromethyl-biphenyl-4-yl]-urea] gave a melting point of 246 to 248 °C. `Cc1ccc(-c2ccc(NC(=O)Nc3ccccc3F)c(-c3nnn[nH]3)c2)cc1` [Compound 3-27, N-(2-Fluoro-phenyl)-N′-[4′-methyl-3-(1H-tetrazol-5-yl)-biphenyl-4-yl]-urea] gave a melting point of 260 to 262 °C. `O=C(Nc1cc(-c2ccc(F)cc2)cc(-c2nnn[nH]2)c1)Nc1cccc(C(F)(F)F)c1` [Compound 3-8, N-(3-Trifluoromethyl-phenyl)-N′-[4′-fluoro-3-(1H-tetrazol-5-yl)-biphenyl-5-yl]-urea] showed a melting point of 256 to 258 °C. `O=C(Nc1ccccc1F)Nc1ccc(-c2ccc(F)cc2)cc1-c1nnn[nH]1` [Compound 3-26, N-(2-Fluoro-phenyl)-N′-[4′-fluoro-3-(1H-tetrazol-5-yl)-biphenyl-4-yl]-urea] gave a melting point of 263 to 264 °C. Compound `O=C(Nc1ccc(F)c(C(F)(F)F)c1)Nc1ccc(-c2ccc(F)cc2)cc1-c1nnn[nH]1` [Compound 3-17, N-(4-Fluoro-3-trifluoromethyl-phenyl)-N′-[4′-fluoro-3-(1H-tetrazol-5-yl)-biphenyl-4-yl]-urea] has a melting point of 253 to 254 °C. For `O=C(Nc1ccc(Cl)cc1)Nc1ccc(-c2ccc(C(F)(F)F)cc2)cc1-c1nnn[nH]1` [Compound 3-44, N-(4-Chloro-phenyl)-N′-[3-(1H-tetrazol-5-yl)-4′-trifluoromethyl-biphenyl-4-yl]-urea], the melting point was 232 to 234 °C. Work on `O=C(Nc1cc(C(F)(F)F)cc(C(F)(F)F)c1)Nc1ccc(-c2ccc(Cl)cc2)cc1-c1nnn[nH]1` [Compound 3-14, N-(3,5-Bis-trifluoromethyl-phenyl)-N′-[4′-chloro-3-(1H-tetrazol-5-yl)-biphenyl-4-yl]-urea] yielded a melting point of 230 to 233 °C. For `O=C(Nc1ccccc1Br)Nc1ccc(-c2ccc(F)cc2)cc1-c1nnn[nH]1` [Compound 3-23, N-(2-Bromo-phenyl)-N′-[4′-fluoro-3-(1H-tetrazol-5-yl)-biphenyl-4-yl]-urea], the melting point was 256 to 258 °C. In the case of `Cc1ccc(-c2ccc(NC(=O)Nc3ccccc3C(F)(F)F)c(-c3nnn[nH]3)c2)cc1` [Compound 3-30, N-(2-Trifluoromethyl-phenyl)-N′-[4′-methyl-3-(1H-tetrazol-5-yl)-biphenyl-4-yl]-urea], the melting point was 259 to 261 °C. Work on `O=C(Nc1cc(Cl)cc(Cl)c1)Nc1ccc(-c2ccc(C(F)(F)F)cc2)cc1-c1nnn[nH]1` [Compound 3-6, N-(3,5-Dichloro-phenyl)-N′-[3-(1H-tetrazol-5-yl)-4′-trifluoromethyl-biphenyl-4-yl]-urea] yielded a melting point of 226 to 230 °C. `O=C(Nc1ccccc1Cl)Nc1ccc(-c2ccc(C(F)(F)F)cc2)cc1-c1nnn[nH]1` [Compound 3-31, N-(2-Chloro-phenyl)-N′-[3-(1H-tetrazol-5-yl)-4′-trifluoromethyl-biphenyl-4-yl]-urea] gave a melting point of 254 to 255 °C. For `O=C(Nc1cc(Cl)cc(Cl)c1)Nc1ccc(-c2ccc(OC(F)(F)F)cc2)cc1-c1nnn[nH]1` [Compound 3-36, N-(3,5-Dichloro-phenyl)-N′-[3-(1H-tetrazol-5-yl)-4′-trifluoromethoxy-biphenyl-4-yl]-urea], the melting point was 224 to 225 °C.
